Measured values reported in ChEMBL document CHEMBL3352497, “Design and optimization of novel 4-(2-fluorophenoxy)quinoline derivatives bearing a hydrazone moiety as c-Met kinase inhibitors” (Eur J Med Chem, 2014).

Experiments:
[1] = Antiproliferative activity against human MKN45 cells assessed as inhibition of cell growth after 72 hrs by MTT assay; assay type: functional, cell-based; details: MKN-45, 72 h
[2] = Antiproliferative activity against human U87MG cells assessed as inhibition of cell growth after 72 hrs by MTT assay; assay type: functional, cell-based, U-87MG ATCC; details: U-87 MG
HT-29 = assay: cells; details: Homo sapiens, HT-29, 72 h
Description: Antiproliferative activity against human HT-29 cells assessed as inhibition of cell growth after 72 hrs by MTT assay

cells = details: Homo sapiens, NCI-H460, 72 h
A549 = assay: cells; details: Homo sapiens, A549, 72 h
Description: Antiproliferative activity against human A549 cells assessed as inhibition of cell growth after 72 hrs by MTT assay

[3] = target: Hepatocyte growth factor receptor (Homo sapiens, UniProt P08581); assay: Inhibition of c-Met (unknown origin) using poly (Glu, Tyr) 4:1 substrate by HTRF assay
Sequence of Hepatocyte growth factor receptor (P08581 whole entry): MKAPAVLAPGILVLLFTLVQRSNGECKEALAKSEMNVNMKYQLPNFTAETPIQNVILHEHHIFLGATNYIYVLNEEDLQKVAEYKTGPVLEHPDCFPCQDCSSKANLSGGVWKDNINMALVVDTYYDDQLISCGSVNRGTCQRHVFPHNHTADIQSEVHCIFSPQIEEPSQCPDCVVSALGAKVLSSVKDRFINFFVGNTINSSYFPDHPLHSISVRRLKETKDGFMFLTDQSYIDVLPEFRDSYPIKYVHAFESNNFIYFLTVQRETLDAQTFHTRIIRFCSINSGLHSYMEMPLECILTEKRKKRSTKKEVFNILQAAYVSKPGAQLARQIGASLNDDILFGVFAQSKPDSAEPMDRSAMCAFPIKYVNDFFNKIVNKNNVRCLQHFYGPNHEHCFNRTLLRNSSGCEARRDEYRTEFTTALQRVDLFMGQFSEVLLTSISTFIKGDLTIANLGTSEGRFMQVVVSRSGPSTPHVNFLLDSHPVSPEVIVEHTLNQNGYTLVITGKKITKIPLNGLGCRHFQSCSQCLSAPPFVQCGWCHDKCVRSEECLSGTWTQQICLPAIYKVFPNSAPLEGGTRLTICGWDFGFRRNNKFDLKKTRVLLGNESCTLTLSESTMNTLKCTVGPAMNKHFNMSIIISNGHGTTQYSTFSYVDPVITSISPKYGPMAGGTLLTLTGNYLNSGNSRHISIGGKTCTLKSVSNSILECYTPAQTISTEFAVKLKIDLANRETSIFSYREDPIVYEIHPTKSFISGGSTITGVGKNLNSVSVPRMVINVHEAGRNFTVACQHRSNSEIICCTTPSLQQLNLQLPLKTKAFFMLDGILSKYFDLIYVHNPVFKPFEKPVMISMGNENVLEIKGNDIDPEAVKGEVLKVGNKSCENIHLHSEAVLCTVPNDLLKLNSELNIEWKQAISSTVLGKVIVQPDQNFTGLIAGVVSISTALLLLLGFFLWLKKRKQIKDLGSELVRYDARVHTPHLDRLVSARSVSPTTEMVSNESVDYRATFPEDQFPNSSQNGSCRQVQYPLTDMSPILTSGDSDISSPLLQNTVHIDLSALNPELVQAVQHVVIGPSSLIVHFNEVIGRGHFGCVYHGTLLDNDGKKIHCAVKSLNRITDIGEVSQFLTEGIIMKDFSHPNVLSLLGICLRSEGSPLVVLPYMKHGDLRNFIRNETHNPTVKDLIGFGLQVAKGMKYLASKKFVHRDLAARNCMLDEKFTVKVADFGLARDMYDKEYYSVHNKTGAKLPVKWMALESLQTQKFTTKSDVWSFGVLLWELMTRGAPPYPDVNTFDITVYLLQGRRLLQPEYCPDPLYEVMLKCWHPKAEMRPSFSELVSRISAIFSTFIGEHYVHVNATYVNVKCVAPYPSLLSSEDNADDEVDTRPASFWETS

[4] = target: Macrophage-stimulating protein receptor (Homo sapiens, UniProt Q04912); assay: Inhibition of RON (unknown origin)
Sequence of Macrophage-stimulating protein receptor (Q04912 25-304 limits assumed): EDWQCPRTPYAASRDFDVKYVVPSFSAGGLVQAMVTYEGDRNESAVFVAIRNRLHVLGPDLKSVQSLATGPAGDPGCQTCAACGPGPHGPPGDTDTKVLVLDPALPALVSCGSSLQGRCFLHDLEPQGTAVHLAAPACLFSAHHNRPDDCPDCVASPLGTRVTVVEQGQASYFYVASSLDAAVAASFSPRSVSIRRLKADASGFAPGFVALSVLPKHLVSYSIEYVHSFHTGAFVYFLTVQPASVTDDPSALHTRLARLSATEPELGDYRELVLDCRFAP
Sequence of Macrophage-stimulating protein receptor (Q04912 310-1400 limits assumed): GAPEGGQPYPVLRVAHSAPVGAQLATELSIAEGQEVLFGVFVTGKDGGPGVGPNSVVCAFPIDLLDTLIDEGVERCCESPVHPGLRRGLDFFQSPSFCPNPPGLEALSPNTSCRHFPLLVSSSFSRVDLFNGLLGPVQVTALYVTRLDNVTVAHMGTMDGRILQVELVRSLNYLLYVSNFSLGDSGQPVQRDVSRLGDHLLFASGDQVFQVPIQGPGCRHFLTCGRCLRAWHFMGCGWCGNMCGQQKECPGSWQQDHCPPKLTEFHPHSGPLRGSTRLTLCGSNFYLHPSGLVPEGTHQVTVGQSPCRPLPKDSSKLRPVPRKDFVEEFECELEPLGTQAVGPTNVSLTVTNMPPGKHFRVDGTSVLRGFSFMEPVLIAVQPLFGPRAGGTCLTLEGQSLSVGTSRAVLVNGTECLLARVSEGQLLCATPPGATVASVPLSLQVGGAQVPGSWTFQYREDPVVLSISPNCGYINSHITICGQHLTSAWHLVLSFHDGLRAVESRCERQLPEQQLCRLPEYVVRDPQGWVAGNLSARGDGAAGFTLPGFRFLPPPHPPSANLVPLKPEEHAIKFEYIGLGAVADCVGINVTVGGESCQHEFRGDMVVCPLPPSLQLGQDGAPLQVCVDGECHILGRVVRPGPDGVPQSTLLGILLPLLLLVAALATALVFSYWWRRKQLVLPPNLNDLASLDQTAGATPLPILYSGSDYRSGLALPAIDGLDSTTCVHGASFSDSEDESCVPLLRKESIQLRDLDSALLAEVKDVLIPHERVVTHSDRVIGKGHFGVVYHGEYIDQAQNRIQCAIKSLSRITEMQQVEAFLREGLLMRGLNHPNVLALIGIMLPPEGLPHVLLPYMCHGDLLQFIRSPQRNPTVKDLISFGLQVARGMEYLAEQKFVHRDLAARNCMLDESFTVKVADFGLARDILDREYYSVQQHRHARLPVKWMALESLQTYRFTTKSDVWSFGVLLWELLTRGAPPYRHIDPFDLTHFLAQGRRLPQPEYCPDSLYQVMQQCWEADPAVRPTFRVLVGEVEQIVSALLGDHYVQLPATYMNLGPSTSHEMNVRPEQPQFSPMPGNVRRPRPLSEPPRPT

[5] = target: Mast/stem cell growth factor receptor Kit (Homo sapiens, UniProt P10721); assay: Inhibition of c-KIT (unknown origin)
Sequence of Mast/stem cell growth factor receptor Kit (P10721 whole entry): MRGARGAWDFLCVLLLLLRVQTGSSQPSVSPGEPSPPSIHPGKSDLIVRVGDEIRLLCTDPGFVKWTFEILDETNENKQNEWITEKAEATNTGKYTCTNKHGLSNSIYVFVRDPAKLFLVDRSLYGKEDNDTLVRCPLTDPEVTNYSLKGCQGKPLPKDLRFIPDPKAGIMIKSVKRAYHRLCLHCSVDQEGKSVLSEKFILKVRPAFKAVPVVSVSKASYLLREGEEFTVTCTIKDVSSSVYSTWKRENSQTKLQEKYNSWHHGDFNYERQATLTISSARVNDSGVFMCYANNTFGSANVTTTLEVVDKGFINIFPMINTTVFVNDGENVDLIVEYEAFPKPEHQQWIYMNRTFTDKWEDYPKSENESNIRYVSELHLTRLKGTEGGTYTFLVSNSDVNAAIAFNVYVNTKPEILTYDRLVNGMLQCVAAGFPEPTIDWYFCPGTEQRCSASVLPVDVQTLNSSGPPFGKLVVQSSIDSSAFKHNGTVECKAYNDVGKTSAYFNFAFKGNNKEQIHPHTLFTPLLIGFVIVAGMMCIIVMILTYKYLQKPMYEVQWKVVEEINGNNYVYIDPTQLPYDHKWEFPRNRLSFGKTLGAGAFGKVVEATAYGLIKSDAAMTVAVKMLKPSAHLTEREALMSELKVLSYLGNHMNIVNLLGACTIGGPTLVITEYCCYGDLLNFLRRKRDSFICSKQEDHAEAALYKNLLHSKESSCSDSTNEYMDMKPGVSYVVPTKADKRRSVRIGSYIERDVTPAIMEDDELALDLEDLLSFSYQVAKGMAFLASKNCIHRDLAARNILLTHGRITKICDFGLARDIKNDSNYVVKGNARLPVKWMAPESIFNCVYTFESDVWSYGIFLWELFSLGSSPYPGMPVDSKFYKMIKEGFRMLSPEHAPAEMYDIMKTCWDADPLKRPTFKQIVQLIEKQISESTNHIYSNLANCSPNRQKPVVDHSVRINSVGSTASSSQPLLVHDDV

[6] = target: T1, Receptor-type tyrosine-protein kinase FLT3 (Homo sapiens, UniProt P36888); assay: Inhibition of FLT3 (unknown origin)
T1 sequence (P36888 whole entry): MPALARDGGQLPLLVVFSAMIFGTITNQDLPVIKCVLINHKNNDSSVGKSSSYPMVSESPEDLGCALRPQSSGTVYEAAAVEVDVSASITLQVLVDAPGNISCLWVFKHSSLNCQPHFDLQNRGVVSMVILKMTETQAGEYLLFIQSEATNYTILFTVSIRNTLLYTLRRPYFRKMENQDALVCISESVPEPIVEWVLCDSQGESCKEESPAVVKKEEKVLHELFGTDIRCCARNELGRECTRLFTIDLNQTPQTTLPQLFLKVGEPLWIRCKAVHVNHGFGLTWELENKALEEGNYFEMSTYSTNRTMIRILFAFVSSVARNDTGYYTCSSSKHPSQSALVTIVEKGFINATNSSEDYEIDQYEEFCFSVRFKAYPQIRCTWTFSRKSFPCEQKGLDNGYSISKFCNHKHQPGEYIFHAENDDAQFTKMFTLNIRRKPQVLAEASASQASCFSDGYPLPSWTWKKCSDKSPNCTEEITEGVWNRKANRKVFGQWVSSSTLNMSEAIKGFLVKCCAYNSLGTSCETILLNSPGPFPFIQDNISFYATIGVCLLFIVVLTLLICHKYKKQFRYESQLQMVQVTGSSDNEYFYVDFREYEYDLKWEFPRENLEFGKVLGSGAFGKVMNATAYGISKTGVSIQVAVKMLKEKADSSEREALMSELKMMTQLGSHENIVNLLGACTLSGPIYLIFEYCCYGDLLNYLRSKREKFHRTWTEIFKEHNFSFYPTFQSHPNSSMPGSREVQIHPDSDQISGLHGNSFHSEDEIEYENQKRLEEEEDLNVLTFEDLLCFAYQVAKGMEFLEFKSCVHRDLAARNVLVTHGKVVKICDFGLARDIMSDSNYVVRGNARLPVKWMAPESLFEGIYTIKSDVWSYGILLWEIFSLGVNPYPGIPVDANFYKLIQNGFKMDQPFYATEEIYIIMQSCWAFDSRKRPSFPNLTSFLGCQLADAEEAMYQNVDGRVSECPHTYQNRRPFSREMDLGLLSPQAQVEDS

[7] = target: Vascular endothelial growth factor receptor 2 (Homo sapiens, UniProt P35968); assay: Inhibition of KDR (unknown origin)
[8] = target: Epidermal growth factor receptor (Homo sapiens, UniProt P00533); assay: Inhibition of EGFR (unknown origin)
Sequence of Epidermal growth factor receptor (P00533 whole entry): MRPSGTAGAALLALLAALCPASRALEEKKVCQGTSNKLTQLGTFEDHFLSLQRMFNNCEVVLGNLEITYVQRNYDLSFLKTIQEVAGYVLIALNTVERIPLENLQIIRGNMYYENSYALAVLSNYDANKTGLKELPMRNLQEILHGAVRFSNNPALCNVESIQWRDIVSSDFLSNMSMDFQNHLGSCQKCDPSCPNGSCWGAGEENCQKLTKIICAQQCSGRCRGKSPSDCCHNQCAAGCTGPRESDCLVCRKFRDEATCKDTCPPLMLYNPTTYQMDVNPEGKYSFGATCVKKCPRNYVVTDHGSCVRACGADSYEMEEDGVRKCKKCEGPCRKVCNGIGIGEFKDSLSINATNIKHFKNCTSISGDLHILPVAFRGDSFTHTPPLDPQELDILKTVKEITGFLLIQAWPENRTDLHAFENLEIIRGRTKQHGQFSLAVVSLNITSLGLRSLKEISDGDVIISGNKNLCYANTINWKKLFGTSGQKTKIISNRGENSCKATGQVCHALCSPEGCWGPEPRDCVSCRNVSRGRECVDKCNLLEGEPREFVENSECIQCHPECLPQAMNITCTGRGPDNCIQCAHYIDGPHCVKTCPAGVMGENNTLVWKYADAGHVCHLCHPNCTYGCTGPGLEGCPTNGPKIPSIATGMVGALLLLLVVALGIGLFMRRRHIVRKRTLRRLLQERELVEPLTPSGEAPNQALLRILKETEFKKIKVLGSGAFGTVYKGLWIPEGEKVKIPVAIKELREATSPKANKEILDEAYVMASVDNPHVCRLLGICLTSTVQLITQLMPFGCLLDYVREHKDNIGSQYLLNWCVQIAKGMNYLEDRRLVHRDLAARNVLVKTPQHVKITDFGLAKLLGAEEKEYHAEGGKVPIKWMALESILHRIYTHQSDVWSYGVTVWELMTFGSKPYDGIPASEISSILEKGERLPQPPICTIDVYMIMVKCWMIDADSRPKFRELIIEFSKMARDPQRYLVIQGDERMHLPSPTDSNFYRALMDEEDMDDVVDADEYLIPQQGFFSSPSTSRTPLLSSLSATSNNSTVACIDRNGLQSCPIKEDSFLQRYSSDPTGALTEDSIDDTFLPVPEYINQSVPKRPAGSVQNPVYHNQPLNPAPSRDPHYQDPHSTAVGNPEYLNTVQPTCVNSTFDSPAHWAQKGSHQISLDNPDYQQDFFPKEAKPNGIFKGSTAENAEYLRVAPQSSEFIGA

| SMILES | IC50 [1] [nM] | IC50 [2] [nM] | IC50 (HT-29) [nM] | IC50 (cells) [nM] | IC50 (A549) [nM] | IC50 [3] [nM] | IC50 [4] [nM] | IC50 [5] [nM] | IC50 [6] [nM] | IC50 [7] [nM] | IC50 [8] [nM] |
| --- | --- | --- | --- | --- | --- | --- | --- | --- | --- | --- | --- |
| COc1cc2c(Oc3ccc(CC(=O)N/N=C/c4ccccc4)cc3F)ccnc2cc1OCCCN1CCOCC1 | 820 | 480 | 410 | 110 | 230 |  |  |  |  |  |  |
| COc1cc2c(Oc3ccc(CC(=O)N/N=C(/C)c4ccccc4)cc3F)ccnc2cc1OCCCN1CCOCC1 | 970 | 610 | 540 | 190 | 350 |  |  |  |  |  |  |
| COc1cc2c(Oc3ccc(CC(=O)N/N=C/c4ccccc4)cc3F)ccnc2cc1OCCCN1CCCCC1 | 1580 | 1020 | 800 | 220 | 400 |  |  |  |  |  |  |
| COc1cc2c(Oc3ccc(CC(=O)N/N=C(/C)c4ccccc4)cc3F)ccnc2cc1OCCCN1CCCCC1 | 1990 | 1380 | 970 | 340 | 520 |  |  |  |  |  |  |
| COc1cc2c(Oc3ccc(CC(=O)N/N=C/c4ccccc4)cc3F)ccnc2cc1OCCCN1CCCC1 | 720 | 420 | 340 | 83 | 140 |  |  |  |  |  |  |
| COc1cc2c(Oc3ccc(CC(=O)N/N=C(/C)c4ccccc4)cc3F)ccnc2cc1OCCCN1CCCC1 | 760 | 590 | 440 | 99 | 280 |  |  |  |  |  |  |
| COc1cc2c(Oc3ccc(CC(=O)N/N=C/c4ccccc4)cc3F)ccnc2cc1OCCCN1CCC(C)CC1 | 2120 | 970 | 810 | 170 | 340 |  |  |  |  |  |  |
| COc1cc2c(Oc3ccc(CC(=O)N/N=C(/C)c4ccccc4)cc3F)ccnc2cc1OCCCN1CCC(C)CC1 | 2690 | 1480 | 950 | 200 | 390 |  |  |  |  |  |  |
| COc1cc2c(Oc3ccc(CC(=O)N/N=C/c4ccc(O)cc4)cc3F)ccnc2cc1OCCCN1CCOCC1 | 3220 | 1700 | 1300 | 310 | 560 |  |  |  |  |  |  |
| COc1ccc(/C=N/NC(=O)Cc2ccc(Oc3ccnc4cc(OCCCN5CCOCC5)c(OC)cc34)c(F)c2)cc1 | 3910 | 2650 | 1720 | 450 | 960 |  |  |  |  |  |  |
| COc1cc(/C=N/NC(=O)Cc2ccc(Oc3ccnc4cc(OCCCN5CCOCC5)c(OC)cc34)c(F)c2)ccc1O | 11200 | 5860 | 3940 | 1170 | 2980 |  |  |  |  |  |  |
| COc1cc2c(Oc3ccc(CC(=O)N/N=C/c4ccc(O)c(Br)c4)cc3F)ccnc2cc1OCCCN1CCOCC1 |  |  | 3670 | 1080 | 2540 |  |  |  |  |  |  |
| COc1cc2c(Oc3ccc(CC(=O)N/N=C/c4ccc(S(C)(=O)=O)cc4)cc3F)ccnc2cc1OCCCN1CCOCC1 | 1140 | 680 | 480 | 100 | 250 |  |  |  |  |  |  |
| COc1cc2c(Oc3ccc(CC(=O)N/N=C/c4ccc(OC(F)(F)F)cc4)cc3F)ccnc2cc1OCCCN1CCOCC1 | 690 | 450 | 380 | 81 | 200 |  |  |  |  |  |  |
| COc1cc2c(Oc3ccc(CC(=O)N/N=C/c4ccc(C(F)(F)F)cc4)cc3F)ccnc2cc1OCCCN1CCOCC1 | 490 | 300 | 220 | 55 | 110 |  |  |  |  |  |  |
| COc1cc2c(Oc3ccc(CC(=O)N/N=C/C(C)C)cc3F)ccnc2cc1OCCCN1CCOCC1 |  |  | 25200 | 7140 | 23000 |  |  |  |  |  |  |

| SMILES | IC50 [1] [nM] | IC50 [2] [nM] | IC50 (HT-29) [nM] | IC50 (cells) [nM] | IC50 (A549) [nM] | IC50 [3] [nM] | IC50 [4] [nM] | IC50 [5] [nM] | IC50 [6] [nM] | IC50 [7] [nM] | IC50 [8] [nM] |
| --- | --- | --- | --- | --- | --- | --- | --- | --- | --- | --- | --- |
| COc1cc2c(Oc3ccc(CC(=O)N/N=C/c4ccc(F)cc4)cc3F)ccnc2cc1OCCCN1CCCC1 | 560 | 420 | 260 | 67 | 140 |  |  |  |  |  |  |
| COc1cc2c(Oc3ccc(CC(=O)N/N=C/c4ccc(Cl)cc4)cc3F)ccnc2cc1OCCCN1CCCC1 | 620 | 400 | 280 | 75 | 170 |  |  |  |  |  |  |
| COc1cc2c(Oc3ccc(CC(=O)N/N=C/c4ccccc4F)cc3F)ccnc2cc1OCCCN1CCCC1 | 980 | 810 | 480 | 82 | 320 |  |  |  |  |  |  |
| COc1cc2c(Oc3ccc(CC(=O)N/N=C/c4ccc(OC(F)(F)F)cc4)cc3F)ccnc2cc1OCCCN1CCCC1 | 460 | 330 | 200 | 58 | 130 |  |  |  |  |  |  |
| COc1cc2c(Oc3ccc(CC(=O)N/N=C/c4ccc(C(F)(F)F)cc4)cc3F)ccnc2cc1OCCCN1CCCC1 | 370 | 290 | 150 | 31 | 80 | 1.86 | 28.6 | 45 | 390 | 560 | > 100000 |
| COc1cc2c(Oc3ccc(CC(=O)N/N=C/c4ccco4)cc3F)ccnc2cc1OCCCN1CCOCC1 |  |  | 2780 | 880 | 3190 |  |  |  |  |  |  |
| COc1cc2c(Oc3ccc(CC(=O)N/N=C/c4ccc[nH]4)cc3F)ccnc2cc1OCCCN1CCOCC1 |  |  | 2360 | 760 | 1220 |  |  |  |  |  |  |
| COc1cc2c(Oc3ccc(CC(=O)N/N=C/c4cccs4)cc3F)ccnc2cc1OCCCN1CCOCC1 | 1820 | 1150 | 960 | 280 | 390 |  |  |  |  |  |  |
| COc1cc2c(Oc3ccc(CC(=O)N/N=C/c4ccncc4)cc3F)ccnc2cc1OCCCN1CCOCC1 | 790 | 500 | 320 | 94 | 160 |  |  |  |  |  |  |
| COc1cc2c(Oc3ccc(CC(=O)N/N=C(/C)c4ccc(F)cc4)cc3F)ccnc2cc1OCCCN1CCCC1 | 580 | 350 | 280 | 72 | 170 |  |  |  |  |  |  |
| COc1cc2c(Oc3ccc(CC(=O)N/N=C(/C)c4ccc(Cl)cc4)cc3F)ccnc2cc1OCCCN1CCCC1 |  |  | 290 | 83 | 190 |  |  |  |  |  |  |
| COc1cc2c(Oc3ccc(CC(=O)N/N=C(/C)c4ccc(O)cc4)cc3F)ccnc2cc1OCCCN1CCCC1 | 1680 | 1160 | 780 | 180 | 410 |  |  |  |  |  |  |
| COc1cc2c(Oc3ccc(CC(=O)N/N=C(/C)c4ccc(C(F)(F)F)cc4)cc3F)ccnc2cc1OCCCN1CCCC1 | 420 | 370 | 190 | 46 | 96 |  |  |  |  |  |  |
| COc1cc2c(Oc3ccc(CC(=O)N/N=C(/C)c4ccc(C(F)(F)F)cc4)cc3F)ccnc2cc1OCCCN1CCOCC1 | 590 | 390 | 260 | 71 | 170 |  |  |  |  |  |  |
| COc1cc2c(Oc3ccc(CC(=O)N/N=C(/C)c4ccc(C(F)(F)F)cc4)cc3F)ccnc2cc1OCCCN1CCCCC1 | 940 | 590 | 450 | 130 | 290 |  |  |  |  |  |  |
| COc1cc2c(Oc3ccc(CC(=O)N/N=C(/C)c4ccc(C(F)(F)F)cc4)cc3F)ccnc2cc1OCCCN1CCC(C)CC1 | 840 | 510 | 360 | 96 | 220 |  |  |  |  |  |  |
